Experimental findings from US20210355104A1, “ADENOSINE RECEPTOR BINDING COMPOUNDS” (Nikang Therapeuticsm Inc., priority 2018, published 2021) are described below.

“And” between values parts separate entries of the source, which are not always exact repeats. Identical values can stand only once.

Assay [1] addresses T1, Adenosine A2A receptor (Homo sapiens, UniProt P29274). The experiment in a line: Adenosine A2A receptor competitive binding assay (Tag-lite HTRF). The note with it: Tag-lite adenosine A2A receptor ligand binding, 2 h room temperature; values separated by / are repeat determinations. An outline of the steps:
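Compound displacement of a red fluorescent antagonist tracer (added at 60 nM stock) from donor-labelled, pre-transfected human A2A cells was read by HTRF after 2 h at room temperature; compound dilutions contained 0.6% DMSO.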
(Time-resolved FRET reads energy transfer from a long-lived donor to a nearby acceptor.)

The target of assay [2] is T1, Adenosine A2A receptor. The experiment in a line: cAMP assay in 293A cells stably expressing the adenosine A2A receptor (CGS21680 stimulation, HTRF). Type of assay: cell-based. Also noted: expressed in transfected cells; host or cells: 293A cells (Invitrogen, Cat# R705-07) infected with A2A-expressing lentivirus (custom packaged by Biosettia), puromycin selected. The note with it: 293A-A2AR cells, 0.1% BSA, values separated by / are repeat determinations. On the technique in general: Changes in cAMP serve as a functional read-out for many G protein-coupled receptors.

Setting [3] is: 8 nM CGS, read-out: cAMP (nM) 0.1% BSA, 8 nM CGS.
[4] abbreviates: 1 uM CGS, read-out: cAMP (nM) 0.1% BSA, 1 uM CGS.

T1 sequence (P29274 whole entry): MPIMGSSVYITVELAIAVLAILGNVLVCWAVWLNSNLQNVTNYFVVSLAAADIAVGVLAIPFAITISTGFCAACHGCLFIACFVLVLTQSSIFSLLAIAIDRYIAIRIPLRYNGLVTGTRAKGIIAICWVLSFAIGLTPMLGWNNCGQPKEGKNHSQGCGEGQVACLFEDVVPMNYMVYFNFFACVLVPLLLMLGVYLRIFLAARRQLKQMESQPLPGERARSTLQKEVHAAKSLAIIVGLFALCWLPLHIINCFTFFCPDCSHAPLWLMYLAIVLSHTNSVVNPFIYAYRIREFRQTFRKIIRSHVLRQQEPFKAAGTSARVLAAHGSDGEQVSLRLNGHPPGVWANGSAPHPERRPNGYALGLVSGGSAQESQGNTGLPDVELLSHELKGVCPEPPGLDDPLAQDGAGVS

For `Cc1cc(-c2c(OCC3(CO)CCOCC3)nc(N)nc2-c2ccc(F)cc2)cc(C(F)F)n1` [Example 125, (4-(((2-amino-5-(2-(difluoromethyl)-6-methylpyridin-4-yl)-6-(4-fluorophenyl)pyrimidin-4-yl)oxy)methyl)tetrahydro-2H-pyran-4-yl)methanol], the IC50 on Adenosine A2A receptor [1] amounted to 18.1 nM; at Adenosine A2A receptor [2] (setting [3]), 8.7 nM; at Adenosine A2A receptor [2] (setting [4]), 1890 nM.
In the case of `CCc1nn[nH]c1COc1nc(N)nc(-c2ccc(F)cc2)c1-c1cc(C)nc(C(F)F)c1` [Example 137, 5-(2-(difluoromethyl)-6-methylpyridin-4-yl)-4-((4-ethyl-1H-1,2,3-triazol-5-yl)methoxy)-6-(4-fluorophenyl)pyrimidin-2-amine], the IC50 at Adenosine A2A receptor [1] is 92 nM; on Adenosine A2A receptor [2] (setting [3]), 40 nM.
The matching figures for `CNC(=O)OCCOc1nc(N)nc(-c2ccc(F)cc2)c1-c1cc(C)nc(C(F)F)c1` [Example 143, 2-((2-amino-5-(2-(difluoromethyl)-6-methylpyridin-4-yl)-6-(4-fluorophenyl)pyrimidin-4-yl)oxy)ethyl methylcarbamate]: 11.7 nM and 8.1 nM.
The like results for `CNC(=O)OCCOc1nc(N)nc(-c2ccccc2)c1-c1cc(C)nc(C(F)(F)F)c1` [Example 144, 2-((2-amino-5-(2-methyl-6-(trifluoromethyl)pyridin-4-yl)-6-phenylpyrimidin-4-yl)oxy)ethyl methylcarbamate] were, in that order, 4.5 nM and 4.2 nM.
The matching figures for `CCN(CCOc1nc(N)nc(-c2ccc(F)cc2)c1-c1cc(C)nc(C(F)F)c1)c1ncccn1` [Example 146, 5-(2-(difluoromethyl)-6-methylpyridin-4-yl)-4-(2-(ethyl(pyrimidin-2-yl)amino)ethoxy)-6-(4-fluorophenyl)pyrimidin-2-amine]: 4 nM and 5.6 nM.
As to `Cc1cc(-c2c(OCCN(C)c3nccc(N)n3)nc(N)nc2-c2ccc(F)cc2)cc(C(F)F)n1` [Example 147, N^2-(2-((2-amino-5-(2-(difluoromethyl)-6-methylpyridin-4-yl)-6-(4-fluorophenyl)pyrimidin-4-yl)oxy)ethyl)-N^2-methylpyrimidine-2,4-diamine], the IC50 at Adenosine A2A receptor [1] was determined as 13 nM; at Adenosine A2A receptor [2] (setting [4]), 5460 nM.
As to `Cc1cc(-c2c(OCCN(C)c3cccnn3)nc(N)nc2-c2ccc(F)cc2)cc(C(F)F)n1` [Example 150, N-(2-((2-amino-5-(2-(difluoromethyl)-6-methylpyridin-4-yl)-6-(4-fluorophenyl)pyrimidin-4-yl)oxy)ethyl)-N-methylpyridazin-3-amine], the IC50 is 2.7 nM and 3.2 nM at Adenosine A2A receptor [1]; 98 nM on Adenosine A2A receptor [2] (setting [4]).
Turning to `Cc1cc(-c2c(OCCN(C)c3cnccn3)nc(N)nc2-c2ccc(F)cc2)cc(C(F)F)n1` [Example 152, 5-(2-(difluoromethyl)-6-methylpyridin-4-yl)-4-(4-fluorophenyl)-6-(2-(methyl(pyrazin-2-yl)amino)ethoxy)pyrimidin-2-amine], the IC50 on Adenosine A2A receptor [1] turned out to be 5.1 nM; on Adenosine A2A receptor [2] (setting [4]), 351 nM.
Consider `Cc1cc(-c2c(OCCN(CCO)c3ccccn3)nc(N)nc2-c2ccc(F)cc2)cc(C(F)F)n1` [Example 153, 2-((2-((2-amino-5-(2-(difluoromethyl)-6-methylpyridin-4-yl)-6-(4-fluorophenyl)pyrimidin-4-yl)oxy)ethyl)(pyridin-2-yl)amino)ethan-1-ol], for which the IC50 on Adenosine A2A receptor [1] came to 8.9 nM; on Adenosine A2A receptor [2] (setting [3]), 4.1 nM.
The like results for `Cc1cc(-c2c(OCCN(C)c3cc(OCCO)ccn3)nc(N)nc2-c2ccc(F)cc2)cc(C(F)F)n1` [Example 155, 2-((2-((2-((2-amino-5-(2-(difluoromethyl)-6-methylpyridin-4-yl)-6-(4-fluorophenyl)pyrimidin-4-yl)oxy)ethyl)(methyl)amino)pyridin-4-yl)oxy)ethan-1-ol] were, in that order, 24 nM and 5.4 nM.
